In one test the target is T1, GlyR α1 WT (Homo sapiens, UniProt P23415).
T1 sequence (P23415 29-457): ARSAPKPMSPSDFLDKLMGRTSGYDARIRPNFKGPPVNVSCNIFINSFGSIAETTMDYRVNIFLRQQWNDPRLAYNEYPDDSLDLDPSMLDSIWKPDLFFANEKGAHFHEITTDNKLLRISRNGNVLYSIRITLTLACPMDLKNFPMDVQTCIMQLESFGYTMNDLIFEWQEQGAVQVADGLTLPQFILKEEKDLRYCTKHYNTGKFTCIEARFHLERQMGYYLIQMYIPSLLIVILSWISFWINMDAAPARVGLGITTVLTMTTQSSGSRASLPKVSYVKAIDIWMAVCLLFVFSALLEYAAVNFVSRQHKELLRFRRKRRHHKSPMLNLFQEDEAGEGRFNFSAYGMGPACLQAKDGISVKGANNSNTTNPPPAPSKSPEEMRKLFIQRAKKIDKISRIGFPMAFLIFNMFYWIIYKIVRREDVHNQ
Nature of the test: Cell-attached single-channel recording of wild-type GlyR α1 in HEK 293 cells. It is filed as cell-based.

The target of a further test is GlyR α1 F99L (Homo sapiens, UniProt P23415, F127L). The test can be described thus: Whole-cell recording of substituted GlyR in HEK cells. It is filed as cell-based. The following applies: same cell.

We go through two molecules from publication PMC6685790 (Nature structural & molecular biology, 2008).

Chain of GlyR α1 F99L (P23415 29-457 F127L): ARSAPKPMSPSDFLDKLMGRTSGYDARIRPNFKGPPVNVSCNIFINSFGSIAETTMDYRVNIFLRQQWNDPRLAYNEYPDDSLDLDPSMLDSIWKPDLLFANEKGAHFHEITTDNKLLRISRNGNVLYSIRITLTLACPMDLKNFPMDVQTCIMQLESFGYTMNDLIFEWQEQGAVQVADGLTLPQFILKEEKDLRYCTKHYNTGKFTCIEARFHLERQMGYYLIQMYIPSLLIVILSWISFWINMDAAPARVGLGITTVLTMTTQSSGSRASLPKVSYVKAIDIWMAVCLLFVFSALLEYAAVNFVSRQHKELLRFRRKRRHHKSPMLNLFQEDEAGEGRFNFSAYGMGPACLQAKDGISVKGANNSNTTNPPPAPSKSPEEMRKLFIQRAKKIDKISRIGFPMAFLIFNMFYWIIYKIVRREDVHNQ

As to `NCC(=O)O` [Glycine, glycine], at GlyR α1 WT (α1 WT +30 μM Gly), the “Burst durations Area, component 1” value is listed as 28 ± 7%; the “Burst durations Area, component 2” value worked out at 22 ± 4%; the “Burst durations Area, component 3” value is listed as 35 ± 5%; the “Burst durations Area, component 4” value came to 19 ± 7%. Further, at GlyR α1 WT (α1 WT +30 μM Gly), the “Burst durations τB, component 1” value is 0.3 ± 0.06 ms; the “Burst durations τB, component 2” value was found to be 1.4 ± 0.6 ms; the “Burst durations τB, component 3” value came to 6.9 ± 2.2 ms; the “Burst durations τB, component 4” value is on record as 63.4 ± 14.8 ms. Moreover, on GlyR α1 WT (α1 WT +30 μM Gly), the “Closed times Area, component 1” value is on record as 44 ± 16%; the “Closed times Area, component 2” value came out at 35 ± 15%; the “Closed times Area, component 3” value was 8 ± 1%; the “Closed times Area, component 4” value is 10 ± 2%. Further, at GlyR α1 WT (α1 WT +30 μM Gly), the “Closed times Area, component 5” value was 4 ± 1%; the “Closed times τC, component 1” value was 0.22 ± 0.03 ms; the “Closed times τC, component 2” value is on record as 0.90 ± 0.24 ms; the “Closed times τC, component 3” value is on record as 4.3 ± 1.6 ms. For the same molecule, at GlyR α1 WT (α1 WT +30 μM Gly), the “Closed times τC, component 4” value was 109 ± 6.2 ms; the “Closed times τC, component 5” value is listed as 2200 ± 1000 ms; the “Open times Area, component 1” value is on record as 36 ± 11%; the “Open times Area, component 2” value is given as 39 ± 3%. At GlyR α1 WT (α1 WT +30 μM Gly), the “Open times Area, component 3” value is on record as 26 ± 10%; the “Open times τO, component 2” value is recorded as 1.5 ± 0.2 ms; the “Open times τO, component 3” value came to 8.9 ± 2.1 ms. Also, the “Open times τO, component 1” value at GlyR α1 WT (α1 WT +30 μM Gly, +60 mV pipette potential) came out at 0.28 ± 0.029 ms. For the same molecule, at GlyR α1 WT (α1 WT activated by glycine), the “Estimated single channel conductance” value is reported as ~ 60 pS and the “PO (open probability within clusters/bursts)” value came out at 0.9 ± 0.03. Further, the “Single channel Amplitude” value on GlyR α1 WT (α1 WT activated by glycine, +60 mV pipette potential) is 4 – 5 pA. Besides, the “Single channel Amplitude” value at GlyR α1 WT (α1 WT activated by glycine, +60 mV pipette potential, listed as Gly) is 4.5 ± 0.7 pA.
For the molecule `[Zn+2]` [Zn^2+], the “Maximal Zn^2+ (1 mM)-activated current normalised to glycine Imax (10 mM)” value on GlyR α1 F99L was below 2 % Gly Imax.
